Where two headings read alike, the source gives them in different places.
What was measured:
Mono Mac 1 cell line = assay: Toxicity in Mono Mac 1 cells; assay type: cell-based; details: data not shown
[1] = test system: HIV-1-based luciferase reporter viruses with HXB2, AML-V or VSV-G env; assay type: cell-based
HIV-1NL4-3 = assay: AmB inhibition of HIV-1NL4-3 replication in 1G5 cells (luciferase activity)
Description: In a second set of experiments, AmB and the virus were added simultaneously to cells and incubation was made during the first two hours of infection (open square).
Infection was monitored by measuring the luciferase activity. […] Thereafter, an aliquot of this cell lysate (20 μl) was mixed with 100 μl of luciferase assay buffer and activity was evaluated using a microplate luminometer.

1G5 cells = assay: Cellular viability / toxicity in 1G5 cells; assay type: cell-based; details: 72 h, concentration range tested (0-10 μg/ml), data not shown

SMILES | Area under the curve of indinavir (Brachial lymph nodes) [μmoles lipids/g tissues/h] | Area under the curve of indinavir (Cervical lymph nodes) [μmoles lipids/g tissues/h] | Area under the curve of indinavir (Inguinal lymph nodes) [μmoles lipids/g tissues/h] | Area under the curve of indinavir (Liver) [μmoles lipids/g tissues/h] | Area under the curve of indinavir (Mesenteric lymph nodes) [μmoles lipids/g tissues/h] | Area under the curve of indinavir (Plasma) [μmoles lipids/g tissues/h] | Area under the curve of indinavir (Popliteal lymph nodes) [μmoles lipids/g tissues/h] | Area under the curve of indinavir (Spleen) [μmoles lipids/g tissues/h] | drug levels in lymphoid tissues (all lymphoid tissues) | toxicity (Mono Mac 1 cell line) | inhibition of infection with pseudotyped virions [1] | concentration giving complete inhibition of HIV-1NL4-3 replication (HIV-1NL4-3; 1G5 cells pretreated with AmB) [μg AmB/ml] | inhibition of viral replication (HIV-1NL4-3; AmB added to infected cells after adsorption, 10 μg AmB/ml, 72 h) [%] | concentration giving complete abrogation of viral replication (HIV-1NL4-3; cell-free virus pretreated 1 h at 37° C.) [μg AmB/ml] | viral particles inactivated (HIV-1NL4-3; cell-free virus pretreated 1 h at 37° C. with 1 μg AmB/ml) | concentration giving complete inhibition of HIV-1 replication (HIV-1NL4-3; virus and AmB added simultaneously to cells (no pretreatment)) [μg AmB/ml] | cellular viability (1G5 cells)
CC(C)(C)NC(=O)[C@@H]1CN(Cc2cccnc2)CCN1C[C@@H](O)C[C@@H](Cc1ccccc1)C(=O)N[C@H]1c2ccccc2C[C@H]1O [Free indinavir, indinavir] | 4.9 | 7.6 | 4.1 | 35.0 | 6.4 | 2.3 | 4.5 | 5.3 | very low drug levels |  |  |  |  |  |  |  | 
C[C@@H]1[C@H](O)[C@@H](C)/C=C/C=C/C=C/C=C/C=C/C=C/C=C/[C@H](O[C@@H]2O[C@H](C)[C@@H](O)[C@H](N)[C@@H]2O)C[C@@H]2O[C@](O)(C[C@@H](O)C[C@@H](O)[C@H](O)CC[C@@H](O)C[C@@H](O)CC(=O)O[C@H]1C)C[C@H](O)[C@H]2C(=O)O [AmB, amphotericin B] |  |  |  |  |  |  |  |  |  | without significant toxicity | efficient to inhibit infection | 10 | 40 | 5 | About 50% | 10 | did not affect the cellular viability
